“And” between values parts separate entries of the source, which are not always exact repeats. Identical values can stand only once. Like-named read-outs stand apart in the source and are kept apart here. Bridge positions count the residues as written; N and C are the ends. Square brackets hold non-standard residues; d marks the D form. Peptide text beside a SMILES is read from it. I, II: the chains in the order shown.
What was measured:
[1] = system: metastatic human breast (SUM 52 PE) and prostate (DU 145) cancer cell lines, human microvascular cells (hmvec); format: cell-based; conditions: for fold more potent than the unmodified PHSCN: SUM 52 PE and DU 145 invasion
Procedure: Some of the examples below employ an invasion assay utilizing naturally occurring basement membranes from 72 hour sea urchin embryos. Breast and prostate cancer invasion was induced with serum; hmvec invasion was induced with the PHSRN sequence of the plasma fibronectin (pFn) cell binding domain. The assay is described in U.S. Pat. No. 6,001,965, hereby incorporated by reference.
In this example, PHSCN peptides, where the sulfur of the SH group of cysteine was modified to block disulfide bond formation, were tested in an in vitro invasion assay utilizing naturally occurring basement membranes. More specifically, the invasion-inhibiting potencies of S-methylated and S-acetylated derivatives of the PHSCN (SEQ ID NO:1) peptide [i.e. Ac-PHSC(S—CH3)N—NH2 (SEQ ID NO:3) and Ac-PHSC(S—COCH3)N—NH2, (SEQ ID NO:4), respectively] were quantitated [in comparison with PHSCN (SEQ ID NO:1) dimerized by S—S bond formation] with two types of metastatic human cancer cell lines, i.e. a breast cell line (SUM 52 PE) and a prostate cell line (DU 145) (see FIG. 1 and FIG. 2, respectively). These modified peptides prevent breast cancer and prostate cancer invasion at concentrations in the pg/ml range.
In this example, PHSCN peptides, where two L-amino acids are substituted with D-amino acids, were tested in an in vitro invasion assay utilizing naturally occurring basement membranes. More specifically, the invasion-inhibiting potencies of Ac-PHScN—NH2 (SEQ ID NO:7), and Ac-PhScN—NH2 (SEQ ID NO:8) were quantitated [in comparison with Ac-PHSCN—NH2 (SEQ ID NO:12) as well as a scrambled peptide Ac-HSPNC—NH2 (SEQ ID NO:15)] with two types of metastatic human cancer cell lines, i.e. a breast cell line (SUM 52 PE) and a prostate cell line (DU 145) (see FIG. 3 and FIG. 4, respectively), as well as human microvascular cells (“hmvec”) (see FIG. 5). These modified peptides prevent breast cancer and prostate cancer invasion at concentrations in the pg/ml range.
Table I compares IC50's of Ac-PHSCN—NH2 (“PHSCN”) (SEQ ID NO:12), Ac-PhScN—NH2 (SEQ ID NO:8) (“PhScN”), Ac-PHScN—NH2 (SEQ ID NO:7) (“PHScN”), and the S-methylated and S-acetylated PHSCN derivatives [Ac-PHSC(S-Me)N—NH2 (SEQ ID NO:3) and Ac-PHSC(S—COCH3)N—NH2 (SEQ ID NO:4)]. The IC50 for PhScN is over 10,000-fold lower than that for PHSCN.

DU 145 prostate cancer = assay: subcutaneous DU 145 tumors in nude mice, systemic therapy; format: in vivo, athymic nude mice
Procedure: In this example, PHSCN peptides, where two L-amino acids are substituted with D-amino acids, were tested in vivo. FIG. 6 compares the antitumorigenic effects of systemic Ac-PhScN—NH2 (SEQ ID NO:8) therapy at three different dosages (0.5, 0.05, and 0.005 micrograms per kg) with the antitumorigenic effects of 0.5 mg (500 micrograms) per kg of Ac-PHSCN—NH2 (SEQ ID NO:12) therapy using the DU 145 prostate cancer (as well as with untreated controls). The experiment involved generating subcutaneous DU 145 tumors in nude mice. More specifically, 500,000 suspended DU 145 cells were injected subcutaneously into the flanks of athymic nude mice. All mice were allowed to grow untreated DU 145 tumors in their flanks for about 8 weeks. All 3 therapies (i.e. using the three different dosages) were administered thrice-weekly by tail vein injection after the tumors became palpable. Each treatment group consisted of 8 intramuscular (flank) tumors. After 7 weeks of treatment, when the untreated tumors were very large, all mice were sacrificed at the same time, and all tumors dissected out and measured.

BxPC-3 cells = assay: invasion of irradiated cells on SU-ECM basement membranes; format: cell-based; conditions: 1 μg/ml peptide, single 3 Gy dose, 16 hours
Procedure: (§1) Adherent BxPC-3 and Panc1 cells were irradiated. Panc1 cells received a single 2 Gy dose. BxPC-3 cells received a single 3 Gy dose. Approximately 45 minutes later, the cells were suspended (trypsinized), pelleted and resuspended in medium containing 10% fetal calf serum. Then, the appropriate concentration of the Ac-PHSCN—NH2 (SEQ ID NO: 12) peptide, as well as a scrambled peptide Ac-HSPNC—NH2 (SEQ ID NO:15), was added to the suspended cells to make a final peptide concentration of 1 μg/ml, and they were dropped onto the surfaces of SU-ECM (sea urchin embryo basement membranes). At the time the cells were placed on the basement membranes, one hour had elapsed since irradiation. Cells were incubated on the basement membranes for 16 hours at 37° C. in 5% CO2, prior to scoring at 400-fold magnification, under phase contrast optics. All single cells adherent to the basement membranes were scored, with respect to whether they were inside the basement membranes (invaded), or were still adherent to the exterior surface (uninvaded). Mean invasion percentages were determined with their first standard deviations for each sample.

Panc1 cells = assay: as above; format: cell-based; conditions: 1 μg/ml peptide, single 2 Gy dose, 16 hours
Procedure: as §1

[2] = system: human breast and prostate cancer cell lines; conditions: systemic; cited from earlier work
[3] = system: hmvec, normal human microvascular cells; conditions: cited from earlier work
end-stage human cancers = conditions: cited from earlier work
α5β1 integrin [4] = target: T1, α5β1 integrin (Homo sapiens, UniProt P08648); assay: surface α5β1 levels on irradiated pancreatic cancer cells (immunofluorescence); format: cell-based; parameters: surface α5β1 levels on irradiated pancreatic cancer cells; endogenous in cells; host or cells: Panc1 and BxPC-3 pancreatic cancer cells; conditions: 1 μg per ml prebound 1 hour; Panc1 2 Gy, BxPC-3 3 Gy; 1 hr and 2 hr
Procedure: In this example, antibodies are used to measure downregulation of surface α5β1 levels on irradiated pancreatic cancer cells. Cells were prebound to 1 μg per ml Ac-PHSCN—NH2 (SEQ ID NO:12) peptide per 20,000 cells in medium containing 10% fetal bovine serum for serum for 1 hour at 37° C. The peptide-containing medium was removed, and replaced with serum-containing medium, prior to irradiation. Adherent cells were irradiated once: 2 Gy for Panc1 cells, and 3 Gy for BxPC-3 cells. One hour after irradiation, cells were quickly rinsed with phosphate-buffered saline (PBS) pH 7.4), then fixed for 15 minutes in 4% Paraformaldahyde (commercially available from Fluka) in PBS at room temperature. […] After three PBS washes, cells were incubated in anti-mouse IgG secondary antibody, conjugated with fluorosceine isothiocyanate (FITC) fluorescence marker (commercially available from Jackson ImmunoResearch Lab, Inc) at 1:200 dilution for 1 h at room temperature. […]
Means and first standard deviations (SD) were calculated using Image-Pro Plus software over 30 areas per treatment selected randomly under 400-fold magnification, then copied and pasted on Microsoft Excel data sheets for further data analysis. All data (see FIG. 10) are expressed as mean±SD and evaluated with ANOVA Student t-test. […]

α5β1 integrin [5] = target: T1, α5β1 integrin; assay: competition with biotinylated PHSCN binding in SUM149PT cell extracts (blot); conditions: PhScN:PHSCN ratios 0:1, 1:1, 10:1, 50:1
Text: In this experiment, biotinylated PHSCN peptide (Ac-PHSCNGGK(Bio)-NH2) (SEQ ID NO:18) was mixed with varying amounts of unlabeled Ac-PhScN—NH2 (SEQ ID NO:8). The mixed peptides were bound to detergent extracts of SUM149PT cells. A denaturing, non-reducing gel was run, blotted, and reacted with anti biotin primary antibody (FIG. 7). PhScN:PHSCN ratios were 0:1, 1:1, 10:1, or 50:1, as shown in lanes 2-5, respectively. Lane 1 contains the biotinylated α5β1 control. […] Thus, it is likely to interact with the same target site on α5 integrin as the PHSCN peptide. Alternatively PhScN binding could produce a structural or conformational change in the α5 subunit, such as a change in disulfide bonding pattern, that prevents binding of biotinylated PHSCN.

[6] = system: DU 145 prostate cancer cells; conditions: 20 ug per ml, one hour preincubation, then irradiation

Question: For `CSC[C@H](NC(=O)[C@H](CO)NC(=O)[C@H](Cc1c[nH]cn1)NC(=O)[C@@H]1CCCN1C(C)=O)C(=O)N[C@@H](CC(N)=O)C(N)=O` [PHSC(S—CH3)N, Ac-PHSC(S—CH3)N—NH2] (Ac-PHSC(Me)N-NH2), which “IC50 (concentration exhibiting a 50% inhibition of invasion, relative to stimulated controls)” value ([1]; 72 h) is on record?
Answer: Its value is 1 pg/mL.

Question: What about the “fold more potent than the unmodified PHSCN” value [1] of the same compound?
Answer: The value was ~1000 fold.

Question: And the “invasion-inhibiting potency relative to comparators, in words” value ([1]; listed as S-Me)?
Answer: The value was “many orders of magnitude more potent”.

Question: Which “IC50 (concentration exhibiting a 50% inhibition of invasion, relative to stimulated controls)” value ([1]; 72 h) does the source give for Ac-PHSCN-NH2 [PHSCN, Ac-PHSCN—NH2] here?
Answer: The value was 30,000 pg/ml.

Question: What about the “mean tumor diameter: untreated tumors fold larger relative to treated tumors” value (DU 145 prostate cancer; 0.5 mg per kg thrice-weekly by tail vein injection, 7 weeks of treatment) of the same compound?
Answer: The value was “over 6 fold”.

Question: And the invasion after irradiation (BxPC-3 cells)?
Answer: Its invasion after irradiation is “reduced invasion to zero”.

Question: And the invasion after irradiation (Panc1 cells)?
Answer: Its invasion after irradiation is “reduced invasion to zero”.

Question: What about the “concentration preventing metastatic disease progression” value [2] of the same compound?
Answer: The value was 1 to 2 µM.

Question: And the “dosage preventing metastatic disease progression” value [2]?
Answer: The value was 0.5 to 50 mg/kg.

Question: And the “potency at preventing hmvec invasion” value [3]?
Answer: The value was “equally potent”.

Question: And the adverse events (end-stage human cancers; human, in vivo)?
Answer: Its adverse events is “without significant adverse events”.

Question: And the “time metastatic disease progression was prevented” value (end-stage human cancers; thrice-weekly systemic monotherapy)?
Answer: Its value is 4 to 14 months.

Question: What about the “α5β1 expression on irradiated cancer cells” value (α5β1 integrin [4]) of the same compound?
Answer: The value was “dramatically downregulated”.

Question: For `CC(=O)N1CCC[C@H]1C(=O)N[C@@H](Cc1c[nH]cn1)C(=O)N[C@@H](CO)C(=O)N[C@H](CS)C(=O)N[C@@H](CC(N)=O)C(N)=O` [Ac-PHScN-NH2] (Ac-PHS[dC]N-NH2), which “invasion-inhibiting potency relative to comparators, in words” value [1] is on record?
Answer: The value was “better than the controls, albeit not as potent as the two D-amino acid-containing peptide”.

Question: What about the “IC50 (concentration exhibiting a 50% inhibition of invasion, relative to stimulated controls)” value ([1]; 72 h) of the same compound?
Answer: The value was 5 pg/mL.

Question: For “Ac-HSPNC—NH2 (Ac-HSPNC-NH2) [scrambled peptide control]”, which invasion after irradiation (BxPC-3 cells) is on record?
Answer: The invasion after irradiation was “no inhibition of invasiveness”.

Question: What about the invasion after irradiation (Panc1 cells) of the same compound?
Answer: Its invasion after irradiation is “no inhibition of invasiveness”.

Question: Which “IC50 (concentration exhibiting a 50% inhibition of invasion, relative to stimulated controls)” value ([1]; 72 h) does the source give for “Ac-PHSC(Ac)N-NH2 [PHSC(S—COCH3)N, Ac-PHSC(S—COCH3)N—NH2]” here?
Answer: The value was 0.1 pg/mL.

Question: What about the “fold more potent than the unmodified PHSCN” value [1] of the same compound?
Answer: Its value is ~100,000 fold.

Question: What about the “invasion-inhibiting potency relative to comparators, in words” value ([1]; listed as S-OAc) of the same compound?
Answer: The value was “many orders of magnitude more potent”.

Question: For `CC(=O)N1CCC[C@H]1C(=O)N[C@@H](Cc1c[nH]cn1)C(=O)N[C@@H](CO)C(=O)N[C@@H](CSSC[C@H](NC(=O)[C@H](CO)NC(=O)[C@H](Cc1c[nH]cn1)NC(=O)[C@@H]1CCCN1C(C)=O)C(=O)N[C@@H](CC(N)=O)C(N)=O)C(=O)N[C@@H](CC(N)=O)C(N)=O` [(PHSCN)2] (I: Ac-PHSCN-NH2 / II: Ac-PHSCN-NH2; disulfide I:4-II:4; N-terminus and C-terminus assumed), which “IC50 (concentration exhibiting a 50% inhibition of invasion, relative to stimulated controls)” value ([1]; 72 h) is on record?
Answer: Its value is 100 to 500 pg/mL.

Question: Which results are given for `CC(=O)N1CCC[C@H]1C(=O)N[C@H](Cc1c[nH]cn1)C(=O)N[C@@H](CO)C(=O)N[C@H](CS)C(=O)N[C@@H](CC(N)=O)C(N)=O` [Ac-PhScN-NH2] (Ac-P[dH]S[dC]N-NH2)?
Answer: concentration range demonstrating inhibition of invasion [1]: 3 to 10 pg/ml and 5.0 to 16.7 pM; fold lower IC50 than that for PHSCN [1]: over 10,000 fold; invasion-inhibiting potency relative to comparators, in words [1]: orders of magnitude more potent; IC50 (concentration exhibiting a 50% inhibition of invasion, relative to stimulated controls) ([1]; 72 h): 0.3 pg/mL; visible tumor tissue after treatment (DU 145 prostate cancer; 0.5 μg/kg thrice-weekly by tail vein injection, 7 weeks of treatment): no tumor tissue was visible; potency as inhibitor of tumorigenesis in vivo relative to Ac-PHSCN—NH2 (DU 145 prostate cancer; mouse, in vivo): orders of magnitude more potent; competition for biotinylated PHSCN binding to the α5 integrin subunit (α5β1 integrin [5]): efficient competitor

Question: For “PHSCNGGKMAP [PHSCNGGK-MAP (8), Ac-PHSCNGGK-MAP]”, which “IC50 (concentration exhibiting a 50% inhibition of invasion, relative to stimulated controls)” value ([1]; cell type not given) is on record?
Answer: The value was 300 pg/mL.

Question: What about the “enhancement ratio (MED control / MED with dendrimer)” value [6] of the same compound?
Answer: The value was “larger than one”.
